For 18 molecules, IC50 and EC50 results are on record in patent US12421230B2, “Tricyclic heteroaryl compounds useful as IRAK4 inhibitors” (BRISTOL-MYERS SQUIBB COMPANY, priority 2020, dated 2025).

One assay concerns the target T1, IRAK4 (Homo sapiens, UniProt Q9NWZ3).
T1 sequence (Q9NWZ3 1-460): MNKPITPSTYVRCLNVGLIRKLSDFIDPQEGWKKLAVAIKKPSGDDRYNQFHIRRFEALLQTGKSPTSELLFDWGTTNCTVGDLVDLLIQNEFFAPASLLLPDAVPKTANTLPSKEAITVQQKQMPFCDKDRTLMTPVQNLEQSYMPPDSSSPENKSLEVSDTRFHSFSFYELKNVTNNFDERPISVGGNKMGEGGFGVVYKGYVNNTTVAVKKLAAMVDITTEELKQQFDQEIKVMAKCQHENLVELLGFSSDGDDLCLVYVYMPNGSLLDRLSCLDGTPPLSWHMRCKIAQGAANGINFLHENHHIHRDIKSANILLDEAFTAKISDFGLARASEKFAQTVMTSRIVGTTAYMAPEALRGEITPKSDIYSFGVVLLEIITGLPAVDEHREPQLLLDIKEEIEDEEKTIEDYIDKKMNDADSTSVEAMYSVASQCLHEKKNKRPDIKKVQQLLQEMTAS
The assay can be described thus: IRAK4 Inhibition Assay. It is filed as biochemical. The conditions noted are these: ATP 500 μM; fluoresceinated peptide 1.5 μM; IRAK4 0.6 nM; 60 min room temperature; Caliper LABCHIP.

For another assay, the system named is Human whole blood. Briefly: IRAK4 Whole Blood Assay. Format: cell-based. To be noted: stimulated with TLR2 agonist lipoteichoic acid 10 μg/mL for 5 hours, IL-6 levels. As to the method:
Human whole blood containing the anti-coagulant ACD-A was plated in 384-well plate (25 μL/well) and incubated with compounds for 60 minutes at 37° C. in a 5% CO2 incubator. The blood was stimulated with a TLR2 agonist, 10 μg/mL final concentration of lipoteichoic acid (Invivogen, San Diego, CA) in 25 μL RPMI (Gibco) for 5 hours in a 5% CO2 incubator. At the end of the incubation, plates were centrifuged at 2300 rpm for 5 minutes. Supernatants were harvested and analyzed for IL-6 levels by Flow Cytometry beads assay (BD Biosciences, San Jose, CA).

`CC(C)Nc1c(C(=O)NCCC2(O)CC(F)(F)C2)cnc2c1[nH]c1cc(C#N)ccc12` [Example 43, 7-cyano-N-(2-(3,3-difluoro-1-hydroxycyclobutyl)ethyl)-4-(isopropylamino)-5H-pyrido[3,2-b]indole-3-carboxamide]: at IRAK4, the IC50 came out at 0.0025 µM. In the assay on Human whole blood, this molecule showed a 50% effective concentration (EC50) of 0.74 µM.
Regarding `CC(C)Nc1c(C(=O)NCCC(C)(C)O)cnc2c1[nH]c1cc(C#N)ccc12` [Example 5, 7-cyano-N-(3-hydroxy-3-methylbutyl)-4-(isopropylamino)-5H-pyrido[3,2-b]indole-3-carboxamide], the half-maximal inhibitory concentration (IC50) on IRAK4 is 0.0038 µM. In the assay with Human whole blood, this molecule displayed an EC50 of 1.44 µM.
Turning to `CC(C)Nc1c(C(=O)NCCC(F)F)cnc2c1[nH]c1cc(C#N)ccc12` [Example 31, 7-cyano-N-(3,3-difluoropropyl)-4-(isopropylamino)-5H-pyrido[3,2-b]indole-3-carboxamide], the half-inhibitory concentration (IC50) on IRAK4 worked out at 0.0095 µM. The molecule also returned a concentration for a half-maximal effect (EC50) in the assay with Human whole blood above 20 µM.
On to `CC(C)(O)CCNC(=O)c1cnc2c([nH]c3cc(C#N)ccc32)c1N` [Example 54, 4-amino-7-cyano-N-(3-hydroxy-3-methylbutyl)-5H-pyrido[3,2-b] indole-3-carboxamide], for which the IC50 on IRAK4 was determined as 0.014 µM. Further, in the assay with Human whole blood, the EC50 was above 10 µM.
The matching figures for `Cc1cc(CNC(=O)c2cnc3c([nH]c4cc(C#N)ccc43)c2NC(C)C)on1` [Example 15, 7-cyano-4-(isopropylamino)-N-((3-methylisoxazol-5-yl)methyl)-5H-pyrido[3,2-b]indole-3-carboxamide]: 0.016 µM and 1.45 µM.
Consider `CC(C)CCNC(=O)c1cnc2c([nH]c3cc(C#N)ccc32)c1NC(C)C` [Example 21, 7-cyano-N-isopentyl-4-(isopropylamino)-5H-pyrido[3,2-b] indole carboxamide], for which, on IRAK4, the 50% inhibitory concentration (IC50) is 0.0021 µM. The molecule further gave an EC50 in the assay with Human whole blood of 1.34 µM.
For the molecule `CC(C)(O)[C@H](F)CNC(=O)c1cnc2c([nH]c3cc(C#N)ccc32)c1Nc1cnn(CC(F)F)c1` [Example 23, (R)-7-cyano-4-((1-(2,2-difluoroethyl)-1H-pyrazol-4-yl)amino)-N-(2-fluoro-3-hydroxy-3-methylbutyl)-5H-pyrido[3,2-b]indole-3-carboxamide], the half-maximal inhibitory concentration (IC50) on IRAK4 was determined as 0.015 µM. For the same molecule, the EC50 with Human whole blood was above 10 µM.
For `CC(C)(O)CCNC(=O)c1cnc2c([nH]c3cc(C#N)ccc32)c1NCC(F)F` [Example 36, 7-cyano-4-((2,2-difluoroethyl)amino)-N-(3-hydroxy-3-methylbutyl)-5H-pyrido[3,2-b]indole-3-carboxamide], the half-inhibitory concentration (IC50) on IRAK4 is 0.0091 µM. Besides, the response in the assay with Human whole blood was half-maximal at 3.32 µM (EC50).
The like results for `CC(C)(O)CCNC(=O)c1cnc2c([nH]c3cc(C#N)ccc32)c1NC(C)(C)C` [Example 40, 4-(tert-butylamino)-7-cyano-N-(3-hydroxy-3-methylbutyl)-5H-pyrido[3,2-b]indole-3-carboxamide] were, in that order, 0.0063 µM and 1.6 µM.
For `CC(C)Nc1c(C(=O)NCCN2CCOCC2)cnc2c1[nH]c1cc(C#N)ccc12` [Example 35, 7-cyano-4-(isopropylamino)-N-(2-morpholinoethyl)-5H-pyrido[3,2-b]indole-3-carboxamide], on IRAK4, the 50% inhibitory concentration (IC50) stood at 0.003 µM. This molecule also displayed an EC50 with Human whole blood of 0.77 µM.
For `CC(C)Nc1c(C(=O)NCC(F)(F)CN)cnc2c1[nH]c1cc(C#N)ccc12` [Example 51, N-(3-amino-2,2-difluoropropyl)-7-cyano-4-(isopropylamino)-5H-pyrido[3,2-b]indole-3-carboxamide], the 50% inhibitory concentration (IC50) at IRAK4 worked out at 0.016 µM. Moreover, in the assay on Human whole blood, the midpoint of the response, the EC50, lay at 1.55 µM.
Take `CC(C)Nc1c(-c2cn(C3CCNCC3)nn2)cnc2c1[nH]c1cc(C#N)ccc12` [Example 75, 4-(isopropylamino)-3-(1-(piperidin-4-yl)-1H-1,2,3-triazol-4-yl)-5H-pyrido[3,2-b]indole-7-carbonitrile]: the IC50 at IRAK4 amounted to 0.0015 µM. In the assay on Human whole blood, this molecule registered an EC50 of 0.93 µM.
With `CC(C)Nc1c(C(=O)NCC2CCS(=O)(=O)C2)cnc2c1[nH]c1cc(C#N)ccc12` (stereo not drawn) [Example 61, 7-cyano-N-((1,1-dioxidotetrahydrothiophen-3-yl)methyl)-4-(isopropylamino)-5H-pyrido[3,2-b]indole-3-carboxamide], the 50% inhibitory concentration (IC50) on IRAK4 was determined as 0.0072 µM. The molecule further registered an EC50 in the assay on Human whole blood above 20 µM.
In the case of `CC(=O)N[C@H]1CC[C@H](NC(=O)c2cnc3c([nH]c4cc(C#N)ccc43)c2NC(C)C)CC1` [Example 13, N-((1R,4R)-4-acetamidocyclohexyl)-7-cyano-4-(isopropylamino)-5H-pyrido[3,2-b]indole-3-carboxamide], the 50% inhibitory concentration (IC50) on IRAK4 was found to be 0.0037 µM. In the assay on Human whole blood, this molecule gave an EC50 of 2.21 µM.
`CC(C)Nc1c(C(=O)NCCC(C)(C)F)cnc2c1[nH]c1cc(C#N)ccc12` [Example 38, 7-cyano-N-(3-fluoro-3-methylbutyl)-4-(isopropylamino)-5H-pyrido[3,2-b]indole-3-carboxamide]: the half-maximal inhibitory concentration (IC50) at IRAK4 was determined as 0.0031 µM. Besides, in the assay with Human whole blood, it took 0.51 µM to reach a half-maximal effect (EC50).
For `CC(C)Nc1c(C(=O)NCCC2CC2)cnc2c1[nH]c1cc(C#N)ccc12` [Example 34, 7-cyano-N-(2-cyclopropylethyl)-4-(isopropylamino)-5H-pyrido[3,2-b]indole-3-carboxamide], the IC50 at IRAK4 was found to be 0.0034 µM. In the assay with Human whole blood, this molecule yielded an EC50 of 0.58 µM.
The matching figures for `C[C@@H](CO)Nc1c(C(=O)NCCC(C)(C)O)cnc2c1[nH]c1cc(C#N)ccc12` [Example 30, (S)-7-cyano-N-(3-hydroxy-3-methylbutyl)-4-((1-hydroxypropan-2-yl)amino)-5H-pyrido[3,2-b]indole-3-carboxamide]: 0.0053 µM and 3.38 µM.
In the case of `CC(C)Nc1c(C(=O)N[C@H]2CC[C@H](O)CC2)cnc2c1[nH]c1cc(C#N)ccc12` [Example 10, 7-cyano-N-((1R,4R)-4-hydroxycyclohexyl)-4-(isopropylamino)-5H-pyrido[3,2-b]indole-3-carboxamide], the 50% inhibitory concentration (IC50) on IRAK4 is 0.012 µM. The molecule also displayed a half-maximal effective concentration (EC50) in the assay on Human whole blood of 2.89 µM.
